Measured values as given in PubChem BioAssay (NCI).
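Each compound was tested at five concentrations against cells in 96-well plates for 48 hours. GI50 = concentration required for 50% inhibition of growth. At the TGI there is no net growth.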

Experiments:
Experiment in all cases: NCI-60 cell line screen, 48 h
HOP-92 NSCLC = tested on: HOP-92 NSCLC
ACHN renal = tested on: ACHN renal
MDA-MB-435 = tested on: MDA-MB-435
SK-OV-3 ovarian = tested on: SK-OV-3 ovarian
MALME-3M melanoma = tested on: MALME-3M melanoma
DU-145 prostate = tested on: DU-145 prostate
K-562 leukemia = tested on: K-562 leukemia
CCRF-CEM leukemia = tested on: CCRF-CEM leukemia
RXF 393 renal = tested on: RXF 393 renal
SF-295 CNS = tested on: SF-295 CNS
NCI-H23 lung = tested on: NCI-H23 lung
SK-MEL-28 melanoma = tested on: SK-MEL-28 melanoma
A498 renal = tested on: A498 renal
MDA-MB-231 breast = tested on: MDA-MB-231 breast
SR leukemia = tested on: SR leukemia
HOP-62 NSCLC = tested on: HOP-62 NSCLC
OVCAR-8 ovarian = tested on: OVCAR-8 ovarian
IGROV1 ovarian = tested on: IGROV1 ovarian
SNB-75 CNS = tested on: SNB-75 CNS
CAKI-1 renal = tested on: CAKI-1 renal
SF-268 CNS = tested on: SF-268 CNS
SN12C renal = tested on: SN12C renal
NCI-H460 lung = tested on: NCI-H460 lung
SW-620 colon = tested on: SW-620 colon
RPMI-8226 leukemia = tested on: RPMI-8226 leukemia
SK-MEL-5 melanoma = tested on: SK-MEL-5 melanoma
HS 578T breast = tested on: HS 578T breast
MOLT-4 leukemia = tested on: MOLT-4 leukemia

Work on `CCN(CC)CCOc1ccc(/C(=C(\C)Cc2ccc(OC)cc2)c2ccc(O)cc2)cc1` yielded a TGI (HOP-92 NSCLC) of 2610 nM, a GI50 (ACHN renal) of 1660 nM and a TGI (ACHN renal) of 3100 nM. It also gave a GI50 (MDA-MB-435) of 1680 nM, a TGI (MDA-MB-435) of 3150 nM and a GI50 (SK-OV-3 ovarian) of 2480 nM. The TGI (SK-OV-3 ovarian) was 7380 nM, the GI50 (MALME-3M melanoma) was 1730 nM and the TGI (MALME-3M melanoma) was 3280 nM. For the same compound, the GI50 (DU-145 prostate) was 2140 nM, the TGI (DU-145 prostate) was 5000 nM and the GI50 (K-562 leukemia) was 1370 nM. The TGI (K-562 leukemia) was 3990 nM, the GI50 (CCRF-CEM leukemia) was 2190 nM and the TGI (CCRF-CEM leukemia) was 5100 nM. For the same compound, the GI50 (RXF 393 renal) was 1510 nM, the TGI (RXF 393 renal) was 2910 nM and the GI50 (SF-295 CNS) was 1690 nM. It also gave a TGI (SF-295 CNS) of 3300 nM, a GI50 (NCI-H23 lung) of 1980 nM and a TGI (NCI-H23 lung) of 5080 nM. It also gave a GI50 (SK-MEL-28 melanoma) of 1790 nM, a TGI (SK-MEL-28 melanoma) of 3330 nM and a GI50 (A498 renal) of 1380 nM. The TGI (A498 renal) was 4810 nM, the GI50 (MDA-MB-231 breast) was 1710 nM and the TGI (MDA-MB-231 breast) was 3260 nM. For the same compound, the GI50 (SR leukemia) was 1390 nM, the TGI (SR leukemia) was 3620 nM and the GI50 (HOP-62 NSCLC) was 1890 nM. It also gave a TGI (HOP-62 NSCLC) of 3810 nM, a GI50 (OVCAR-8 ovarian) of 2120 nM and a TGI (OVCAR-8 ovarian) of 5140 nM. The GI50 (IGROV1 ovarian) was 2980 nM, the TGI (IGROV1 ovarian) was 10300 nM and the GI50 (SNB-75 CNS) was 1580 nM. It also gave a TGI (SNB-75 CNS) of 3380 nM, a GI50 (CAKI-1 renal) of 1650 nM and a TGI (CAKI-1 renal) of 3210 nM. It also gave a GI50 (SF-268 CNS) of 1860 nM, a TGI (SF-268 CNS) of 4330 nM and a GI50 (SN12C renal) of 1530 nM. It also gave a TGI (SN12C renal) of 3030 nM, a GI50 (NCI-H460 lung) of 1860 nM and a TGI (NCI-H460 lung) of 3680 nM. The GI50 (SW-620 colon) was 1700 nM, the TGI (SW-620 colon) was 3370 nM and the GI50 (RPMI-8226 leukemia) was 1790 nM. It also gave a TGI (RPMI-8226 leukemia) of 3880 nM, a GI50 (SK-MEL-5 melanoma) of 1630 nM and a TGI (SK-MEL-5 melanoma) of 3000 nM. For the same compound, the GI50 (HS 578T breast) was 1690 nM, the TGI (HS 578T breast) was 4220 nM and the GI50 (MOLT-4 leukemia) was 1500 nM. The TGI (MOLT-4 leukemia) was 3520 nM.
